For assay [1], the system named is corn immature embryos. Briefly: Callus induction and cell proliferation from corn immature embryos on medium with NO modulators. It counts as cell-based. Particulars: 0.01 mM SNAP, compared to other treatments and controls. How it is done: This example describes the use of nitric oxide modulators in Agrobacterium-mediated transformation of corn. Corn callus and embryos, with and without previous inoculation in Agrobacterium, were cultured on medium containing NO donors (0.1 mM SNP and 0.01 mM SNAP), a NO-synthase inhibitor (1 mM L-NMMA), and the enantiomer of the inhibitor as negative control (1 mM D-NMMA, which has no effect on NO-synthase). All chemicals were obtained from EMD Biosciences, Inc. (La Jolla, Calif.). Callus and embryos, with and without previous inoculation in Agrobacterium, cultured on MSW57 (Table 1) were used as additional controls. The increase in the percentage of explants expressing GFP recorded on media with NO donors from Day 3 to Day 6 might be due to compound degradation. […] Limiting nitric oxide (NO) production in immature embryos and callus could increase transient GFP expression.

Assay [2] has as its system corn immature embryos. In words: Follow-up callus induction experiment, embryos on liquid MSW57 medium with L-NMMA or SNAP. The assay is classed as cell-based. Particulars: MSW57 plus 0.1 mM SNAP, 14-d in culture. How it is done:
To follow up on this callus induction observation, a new experiment was set up where a typical embryo harvest was done from several ears and the embryos were distributed onto control medium MSW57, MSW57 plus 1.0 mM L-NMMA or 0.1 mM S-nitroso-N-acetylpenicillamine (SNAP, a NO donor compound). In this experiment the embryos were placed on a dark Millipore filter set on top of two pieces of felt.

Regarding `CC(=O)N[C@H](C(=O)O)C(C)(C)SN=O` (racemic) [SNAP, S-nitroso-N-acetylpenicillamine], in the assay on corn immature embryos [1], the “cell proliferation of embryo-derived callus” value is “significantly higher”. The “embryos with callus induction versus control” value in the assay with corn immature embryos [2] was “more embryos with callus induction than the control”.
